Data: patent publication US20100190813A1, “SPIRO [PIPERIDINE-4- 4' -THIENO [3,2-C] PYRAN] DERIVATIVES AND RELATED COMPOUNDS AS INHIBITORS OF THE SIGMA RECEPTOR FOR THE TREATMENT OF PSYCHOSIS” (priority 2007, published 2010)
Read-outs that look alike come from different tables or passages of the source.

Tests used:
[1] = molecular target: T1, σ2-receptor (Rattus norvegicus, UniProt Q5U3Y7); experiment: Sigma 2 receptor binding (Version B), [3H]-Ditolylguanidin displacement; conditions: for inhibition at 1 µM: read-out: Binding σ2 *[Inhibition at 1 μM]; for Ki: [3H]-Ditolylguanidin 3 nM, σ1 sites masked with (+)-Pentazocin 500 nM
T1 construct: the σ2-Receptorpreparation was prepared from rat liver; from tissue; host or cells: rat liver membrane homogenate
T1 sequence (Q5U3Y7 1-176): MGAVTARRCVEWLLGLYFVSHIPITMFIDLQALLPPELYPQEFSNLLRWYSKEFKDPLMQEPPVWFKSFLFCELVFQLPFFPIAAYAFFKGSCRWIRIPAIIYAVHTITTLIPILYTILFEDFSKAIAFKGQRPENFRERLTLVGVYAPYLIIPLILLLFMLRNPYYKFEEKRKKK
Experimental: In brief the σ2-Receptorpreparation was prepared from rat liver. The livers were homogenized in 5 to 6 times of volume sucrose solution (0.32M) and homogenized. The homogenate was centrifuged at 2900 rpm, 4° C., 10 min). the supernatant was centrifuged again (31000×g, 4° C., 20 min). The pellet was resuspended in TRIS-buffer, incubated for 30 min at room temperature while stirring and centrifuged f (31000×g, 4° C., 20 min). The pellet was resuspended in cold TRIS-buffer pH 8 and homogenized. Then the protein content was measured (approx. 2 mg/mL) and the homogenate frozen at −80° C. for later use.
The radioligand used was [^3H]-Ditolylguanidin in TRIS-buffer pH 8. The σ1-receptor binding sites were masked through (+)-Pentazocin-solution in TRIS-Puffer pH 8.
In a volume of 200 μL 50 μL compound solution of varying concentration, 50 μL (+)-Pentazocin-solution ([…]; resulting in 500 nM in the assay), 50 μL radioligand-solution (12 nM; resulting in 3 nM in the assay) and finally 50 μL of receptor preparation (approx. 2 mg/mL) were given into a well of a microplate equipped with a filter. The plate was closed and stirred for 2 h at room temperature and 500 rpm. Following that the solvents were removed by a harvester through the filter. After rinsing with H2O the filter was measured in a scintillation counter ([^3H]-protocol).

[2] = molecular target: T2, σ1-receptor (Cavia porcellus, UniProt Q60492); experiment: Sigma 1 receptor binding (Version B), [3H]-(+)-Pentazocin displacement; set-up: species or system guinea pig
T2 construct: the σ1-receptor preparation was prepared from guinea pig brain; from tissue; host or cells: guinea pig brain membrane homogenate
T2 sequence (Q60492 whole entry): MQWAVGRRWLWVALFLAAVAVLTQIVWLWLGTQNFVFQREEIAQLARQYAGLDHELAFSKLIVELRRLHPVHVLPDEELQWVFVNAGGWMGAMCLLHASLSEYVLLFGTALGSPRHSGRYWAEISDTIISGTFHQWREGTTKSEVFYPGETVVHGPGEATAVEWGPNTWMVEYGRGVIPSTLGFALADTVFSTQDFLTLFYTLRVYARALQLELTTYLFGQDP
Experimental: In brief the σ1-receptor preparation was prepared from guinea pig brain. The brains were homogenized in 5 to 6 times of volume sucrose solution (0.32M) and homogenized. The homogenate was centrifuged at 2900 rpm, 4° C., 10 min). the supernatant was centrifuged again (23500×g, 4° C., 20 min). The pellet was resuspended in Tris-buffer, incubated for 30 min at room temperature and centrifuged f (23500×g, 4° C., 20 min). The pellet was resuspended in cold TRIS-buffer and homogenized. Then the protein content was measured (approx. 1.5 mg/mL) and the homogenate frozen at −80° C. for later use.
The radioligand used was [^3H]-(+)-Pentazocin in TRIS-buffer. In a volume of 200 μL 50 μL TRIS-buffer, 50 μL compound solution of varying concentration, 50 μL radioligand-solution (8 nM; resulting in 2 nM in the assay) and finally 50 μL of receptor preparation (approx. 1.5 mg/mL) were given into a well of a microplate equipped with a filter. The plate was closed and stirred for 2.5 h at 37° C. and 500 rpm. Following that the solvents were removed by a harvester through the filter. After rinsing with H2O the filter was measured in a scintillation counter ([^3H]-protocol).

[3] = molecular target: T2, σ1-receptor; experiment: Sigma-1 receptor binding (Version A), [3H]-(+)-pentazocine displacement; set-up: species or system guinea pig
[4] = version B, rat liver preparation, compound at 1 μM
[5] = version B, rat liver preparation, read-out: Binding σ2 Ki
[6] = Binding σ2 Ki [nM], version B, rat liver preparation
[7] = version A, guinea pig brain membranes, [3H]-(+)-pentazocine 3.0 nM, read-out: Binding σ1, Ki
[8] = version B, guinea pig brain preparation, [3H]-(+)-Pentazocin 2 nM, read-out: Binding σ1 Ki

COC(=O)c1cc2c(s1)CC(OC)OC21CCN(Cc2ccccc2)CC1 (stereo not drawn) [Example 45, Methyl-1-benzyl-6′-methoxy-6′,7′-dihydrospiro[piperidine-4,4′-thieno[3,2-c]pyrano]-2-carboxylate]
inhibition at 1 µM [1, 4]: 45%

COC1Cc2sc(C#N)cc2C2(CCN(Cc3ccccc3)CC2)O1 (stereo not drawn) [Example 44, 1-Benzyl-6′-methoxy-6′,7′-dihydrospiro[piperidine-4,4′-thieno[3,2-c]pyrano]-2-carbonitrile]
inhibition at 1 µM [1, 4]: 16%

COC1Cc2sccc2C2(CCN(CCCc3ccccc3)CC2)O1 (stereo not drawn) [Example 11]
Ki [1, 5]: 203 nM

N#CCC1Cc2sccc2C2(CCN(Cc3ccccc3)CC2)O1 (stereo not drawn) [Example 23a]
Binding σ2 *[Inhibition at 1 μM] ([1]; version B, rat liver preparation, compound at 1 μM, 1 µM): 6%

c1ccc(CN2CCC3(CC2)OCCc2sccc23)cc1 [Example 19, 1-Benzyl-6′,7′-dihydrospiro[piperidin-4,4′-thieno[3,2-c]pyran]]
Ki [2]: 0.31 ± 0.11 nM | Ki [1, 6]: 9.6 ± 8.7 nM | Ki [3, 7]: 2.1 ± 0.4 nM

O=C1Cc2sccc2C2(CCN(Cc3ccccc3)CC2)O1 [Example 28, 1-Benzylspiro[piperidine-4,4′-thieno[3.2-c]pyrano]-6′(7′H)-one]
inhibition at 1 µM [1]: 0%

N#CCC1Cc2sccc2C2(CCN(Cc3ccccc3)CC2)O1 (stereo not drawn) [Example 18, {1-Benzyl-6′,7′-dihyrospiro[piperidin-4,4′-thieno[3,2-c]pyran]-6′-yl}acetonitril]
inhibition at 1 µM [1, 4]: 6%

c1ccc(CN2CCC3(CC2)OCCc2sccc23)cc1 [Example 26a]
Ki ([2]; read-out: Binding σ1 Ki, version B, guinea pig brain preparation, [3H]-(+)-Pentazocin 2 nM): 0.31 ± 0.11 nM

COC1Cc2sc(Cl)cc2C2(CCN(Cc3ccccc3)CC2)O1 (stereo not drawn) [Example 38, 1-Benzyl-2′-chloro-6′-methoxy-6′,7′-dihydrospiro[piperidine-4,4′-thieno[3.2-c]-pyrano]]
inhibition at 1 µM [1, 4]: 49% | melting point: 117 °C

COC1Cc2sccc2C2(CCNCC2)O1 (stereo not drawn) [Example 2, 6′-Methoxy-6′,7′-dihydrospiro[piperidin-4,4′-thieno[3,2-c]pyran]
Ki [2, 8]: 602 nM | inhibition at 1 µM [1, 4]: 17%

NC(=O)C1Cc2sccc2C2(CCN(Cc3ccccc3)CC2)O1 (stereo not drawn) [Example 29, 1-Benzyl-6′,7′-dihyrospiro[piperidine-4,4′-thieno[3,2-c]pyrano]-6′-carboxamide]
inhibition at 1 µM [1, 4]: 63%

COC1Cc2sc(C(=O)c3ccccc3)cc2C2(CCN(Cc3ccccc3)CC2)O1 (stereo not drawn) [Example 47, 1-(1-Benzyl-6′-methoxy-6′,7′-dihydrospiro[piperidine-4,4′-thieno[3.2-c]pyrano]-2-yl)-1-phenylmethanone]
Ki [1, 5]: 427 ± 163 nM

COC1Cc2sccc2C2(CCN(Cc3ccccc3)CC2)O1 (stereo not drawn) [Example 3, 1-Benzyl-6′-methoxy-6′,7′-dihydrospiro[piperidin-4,4′-thieno[3.2-c]pyran]]
Ki [2, 8]: 0.32 ± 0.16 nM | Ki [1, 5]: 1260 nM | Ki [3]: 2.4 ± 0.3 nM | melting point: 78 °C

COc1ccc(CN2CCC3(CC2)OC(OC)Cc2sccc23)cc1 (stereo not drawn) [Example 14, 6′-Methoxy-1-(4-methoxybenzyl)-6′,7′-dihydrospiro[piperidin-4,4′-thieno[3.2-c]pyran]]
Ki [2]: 2.24 ± 0.99 nM | Ki [1, 5]: 2970 nM

CCOC(=O)C1Cc2sccc2C2(CCN(Cc3ccccc3)CC2)O1 (stereo not drawn) [Example 33, Ethyl-1-benzyl-6′,7′-dihvrospiro[piperidine-4,4′-thieno[3,2-c]pyrano]-6′-carboxylate]
inhibition at 1 µM [1, 4]: 0%

COC1Cc2sc(C=NO)cc2C2(CCN(Cc3ccccc3)CC2)O1 (mixture of isomers) [Example 43, (E/Z)-1-Benzyl-6′-methoxy-6′,7′-dihydrospiro[piperidine-4,4′-thieno[3,2-c]pyrano]-2-carbaldehydroxim]
inhibition at 1 µM [1, 4]: 2%

COC1Cc2sccc2C2(CCN(CC=C(C)C)CC2)O1 (stereo not drawn) [Example 7, 6′-Methoxy-1-(3-methylbut-2-enyl)-6′,7′-dihydrospiro[piperidin-4.4-thieno[3.2-c]pyran]]
Ki [2]: 0.96 ± 0.25 nM | Ki [1, 6]: 78.1 ± 74 nM

COC1Cc2sc(C(OC)OC)cc2C2(CCN(Cc3ccccc3)CC2)O1 (stereo not drawn) [Example 37]
melting point: 71 °C

COC1Cc2sccc2C2(CCN(CC3CCCCC3)CC2)O1 (stereo not drawn) [Example 5, 1-(Cyclohexylmethyl)-6′Methoxy-6′,7′-dihydrospiro[piperidin-4,4′-thieno[3.2-c]pyran]]
Ki [2, 8]: 0.29 ± 0.079 nM | Ki [3, 7]: 2.2 ± 0.3 nM

COC1Cc2sccc2C2(CCN(CCC(C)C)CC2)O1 (stereo not drawn) [Example 6, 6′-Methoxy-1-(3-methylbutyl)-6′,7′-dihydrospiro[piperidin-4,4′-thieno[3.2-c]pyran]]
Ki [2]: 0.96 ± 0.53 nM | Ki [1, 5]: 285 nM | Ki [3]: 1.3 ± 0.5 nM

OCCC1Cc2sccc2C2(CCN(Cc3ccccc3)CC2)O1 (stereo not drawn) [Example 27, 2-(1-Benzyl-6′,7′-dihyrospiro[piperidine-4,4′-thieno[3,2-c]pyrano]-6′-yl)ethanol]
inhibition at 1 µM [1, 4]: 11%

CCCCCN1CCC2(CC1)OC(OC)Cc1sccc12 (stereo not drawn) [Example 9, 6′-Methoxy-1-pentyl-6′,7′-dihydrospiro[piperidin-4,4′-thieno[3.2-c]pyran]]
Ki [2]: 1.64 ± 0.53 nM | Ki [1, 5]: 460 nM | Ki [3]: 2.9 ± 0.5 nM

CC(=O)CC1Cc2sccc2C2(CCN(Cc3ccccc3)CC2)O1 (stereo not drawn) [Example 23, 1-(1-Benzyl-6′,7′-dihydrospiro[piperidine-4,4′-thieno[3.2-c]pyrano]-6′-yl)acetone]
Ki [1, 5]: 1610 nM

CCCCCCCCN1CCC2(CC1)OC(OC)Cc1sccc12 (stereo not drawn) [Example 10, 6′-Methoxy-1-octyl-6′,7′-dihydrospiro[piperidin-4,4-thieno[3.2-c]pyran]]
Ki [2]: 4.5 ± 2 nM | Ki [1, 5]: 1200 nM

COC1Cc2sccc2C2(CCN(Cc3cccs3)CC2)O1 (stereo not drawn) [Example 15, 6′-Methoxy-1-(thien-2-ylmethyl)-6′,7′-dihydrospiro[piperidin-4,4′-thieno[3.2-c]pyran]]
Ki [2, 8]: 2.02 ± 0.61 nM | Ki [1, 5]: 1040 nM

CCCCN1CCC2(CC1)OC(OC)Cc1sccc12 (stereo not drawn) [Example 8, 1-Butyl-6′-methoxy-6′,7′-dihydrospiro[piperidin-4,4′-thieno[3.2-c]pyran]]
Ki [2, 8]: 4.3 ± 0.44 nM | Ki [1, 5]: 497 ± 294 nM | Ki [3]: 5.5 ± 1.2 nM

COC1Cc2sccc2C2(CCN(CCCCc3ccccc3)CC2)O1 (stereo not drawn) [Example 12, 3′-Methoxy-1-(4-phenylbutyl)-6′,7′-dihydrospiro[piperidin-4,4% thieno[3.2-c]pyran]]
Ki [2, 8]: 7.67 ± 2.15 nM | Ki [1, 6]: 99.2 ± 21.9 nM

COC1Cc2sccc2C2(CCN(CCc3ccccc3)CC2)O1 (stereo not drawn) [Example 4, 6′-Methoxy-1-(2-phenylethyl)-6′,7′-dihydrospiro[piperidin-4,4′-thieno[3.2-c]pyran]]
Ki [2]: 5.89 ± 5.1 nM | Ki [1, 5]: 191 nM | melting point: 94 °C

COC1Cc2sc(CN(C)C)cc2C2(CCN(Cc3ccccc3)CC2)O1 (stereo not drawn) [Example 42, (1-Benzyl-6′-methoxy-6′,7′-dihydrospiro[piperidine-4,4′-thieno[3.2-c]pyrano]-2′-yl)-N,N-dimethylmethanamine]
Ki [2]: 16.8 ± 1.1 nM | Ki [1, 5]: 898 nM

c1cc2c(s1)CCOC21CCN(CC2CCCCC2)CC1 [Example 26, 1-(Cyclohexylmethyl)-6′,7′-dihydrospiro[piperidine-4,4′-thieno[3,2-c]pyrano]]
Ki [2, 8]: 0.66 ± 0.27 nM | Ki [1, 6]: 3.27 ± 0.53 nM | melting point: 77 °C

COC1Cc2sccc2C2(CCN(Cc3ccc(F)cc3)CC2)O1 (stereo not drawn) [Example 13, 1-(4-Flourbenzyl)-6′-Methoxy-6′,7′-dihydrospiro[piperidin-4,4′-thieno[3.2-c]pyran]]
Ki [2]: 3.39 ± 4.54 nM | Ki [1, 5]: 425 nM | Ki [3]: 2.3 ± 0.4 nM
